According to patent US11331312B2, “Treatment of H-Ras-driven tumors” (MEMORIAL SLOAN-KETTERING CANCER CENTER, priority 2014, dated 2022):
“Also recorded” adds a separate entry of the source.

Experiments:
[1] = tested on: MAPK pathway signaling effectors; assay: Western blots of MAPK pathway signaling effectors in HP-ATC1 mouse cell line; assay type: cell-based; conditions: HP-ATC1 cells, 1.5% serum, increasing concentrations of drug, Western blot
Experimental: (§1) FIGS. 2A and B show the results of exposure of mouse cell lines from tumor bearing Tpo-Cre/FR-HrasG12V/p53flox/flox mice to farnesyltransferase inhibitors. Mouse cell lines were generated from tumor bearing Tpo-Cre/FR-HrasG12V/p53flox/flox mice by collagenase/dispase digestion and maintained in Coon's F-12 media with serum. After 15 passages, cells were plated in 1.5% serum and exposed to increasing concentrations of indicated drug. (A) Western blots were performed for indicated proteins (antibodies from Cell Signaling with exception of Hras which was from Santa Cruz).
(§2) Development and characterization of mouse cell lines from TPO-Cre, Hras-G12V+/+, p53f/f mice: In order to study this model in vitro, we developed a mouse cell line (HP-ATC1) from an animal with ATC. The cell line was confirmed to harbor the HrasG12V mutation, and maintained primary tumor characteristics, including its spindle shape and the relative expression of E-cadherin and vimentin through serial passaging (x6-10).
(§3) The FTIs Tipifarnib and Lonafarnib block MAPK signaling and growth of mouse Tpo-Cre, HRas-G12V+/+, p53f/f cell line: There are currently no therapies that directly target oncogenic forms of oncogenic Ras.
(§4) Mouse cell lines were generated from tumor bearing Tpo-Cre/FR-HrasG12V/p53flox/flox mice by collagenase/dispase digestion and maintained in Coon's F-12 media with serum. […]

HP-ATC1 cells = assay: 6 day proliferation assay in HP-ATC1 mouse cell line; assay type: cell-based; conditions: 1.5% serum, 6 day assay, increasing concentrations of drug
Experimental: as §1, §2, §3, §4

[2] = tested on: Hras-G12V+/+/p53-null thyroid cancers; assay: 2-week FTI treatment of mice with thyroid cancers, tumor volume by 3D ultrasound; assay type: in vivo, mouse; conditions: 80 mg/kg twice daily by gavage, 2 weeks (14 days)
Experimental: FIG. 3 is a schematic showing the design of the in vivo study of tipifarnib in Tpo-Cre/FR-Hras^G12V/p53^flox/flox mice. Mice were treated for 14 days with tipifarnib 80 mg/kg BID by gavage. Tipifarnib was prepared in 20% beta-cyclodextran. 3D ultrasound was performed before and after treatment to assess percent change in tumor volume.
Tumors in each treatment group were sized matched at the beginning of therapy.
FIG. 5 is a waterfall plot of the same mice but with an additional cohort of mice treated with lonafarnib added. Of note the lonafarnib treated mice were not size matched to the vehicle group.
(§5) The activity of these compounds in vivo was explored. Mice were treated for 2 weeks with tipifarnib or lonafarnib at 80 mg/kg twice daily (drug mixed in 20% beta-cyclodextran and given by gavage). […] Treatment with FTIs was well tolerated in the mice with no significant differences in animal weight between vehicle and drug at 14 days (FIG. 6). Next mice were treated with Tipifarnib or vehicle for an extended time course. Of note, for this experiment tumors in each group were size-matched at the time of treatment initiation (FIG. 8).

[3] = Body weight and tolerability of treated mice; assay type: in vivo, mouse; conditions: 80 mg/kg BID
Experimental: as §5

NC(=O)N1CCC(CC(=O)N2CCC([C@H]3c4ncc(Br)cc4CCc4cc(Cl)cc(Br)c43)CC2)CC1 [lonafarnib]
inhibition of MAPK effector phosphorylation [1]: dose-dependent inhibition | inhibition of proliferation (HP-ATC1 cells): dose-dependent inhibition of proliferation | change in thyroid tumor volume (ultrasound) compared to vehicle-treated mice [2]: Consistent inhibition of growth; also recorded: Significant reduction in thyroid tumor volume

Cn1cncc1[C@@](N)(c1ccc(Cl)cc1)c1ccc2c(c1)c(-c1cccc(Cl)c1)cc(=O)n2C [tipifarnib]
animal weight, drug vs vehicle ([3]; 14 days): No differences | toxicity / tolerability ([3]; two weeks of treatment): minimal toxicity
